In US7449492B2, “Therapeutic agents—I” (priority 2000, dated 2008):

Tests used:
[1] = system: peripheral blood mononuclear cells (PBMCs); test: Phagocytosis with fluorescent beads; assay type: cell-based; conditions: whole heparinized blood, 30 min at 37° C.
Experimental: Phagocytosis by peripheral blood mononuclear cells (PBMCs) was assayed (Steinkamp et al., 1982) using 1 μm Fluoresbrite™ yellow-green fluorescent latex spheres (Polysciences, Inc., Warrington, Pa.). A sample of whole, heparinized blood was treated with drug and 5×10E7 fluorescent latex beads in 10 μL of PBS added per mL of suspension. Cells were incubated and maintained in suspension for 30 min by means of a shaker platform at 37° C. The stimulated and non-stimulated samples were then lysed to isolate PBMCs. The PBMCs were run on the flow cytometer measuring FITC (excitation at 488 nm, emission at 525±20 nm), gated for fluorescence (phagocytosed spheres) and light scatter (cell size).

PKCα = biological target: T1, PKCα (Homo sapiens, UniProt P17252); assay type: cell-based; conditions: HeLa, one hour; for PKCα translocation from the cytoplasm to the plasma membrane: TPA 100 ng/mL, bryostatin-1 5 pg/mL, PEP003 2.25 μg/mL (5 μM), PEP005 (1.5 μM)
T1 construct: host or cells: HeLa cells
Experimental: (§1) Five EGFP-PKC isoforms (Clontech) were available for this experiment, enabling the screening of the three predominant PKC families (i.e. classical, novel and a typical PKCs). The members of the various PKC families are α, β, and γ (classical), θ (novel) and ζ (atypical).
(§2) HeLa cells were plated out in a 24-well plate containing coverslips and transfected with PKC isoforms fused to EGFP, using a commercially available effectine-transfection kit (QIAGEN, Pty. Ltd.). Cells were exposed to the transfection reagents for 16-24 hr. Subsequently, transfected cells were treated for one hour with TPA (100 ng/mL), bryostatin-1 (5 pg/mL), PEP003 (2.25 μg/mL; 5 μM) or PEP005 ([…]) 1.5 μM). Following treatment, cells were fixed on coverslips and mounted on glass slides. The slides were subsequently examined visually by fluorescence microscopy, photographed, and over 150 cells were counted/treatment/PKC isoform. Counted cells were classified according to the localisation of the PKC-EGFP fluorescence as either cytoplasmic or plasma membrane using ImagePro™ 4.1 (FIG. 5). […] The number of these cells was also counted.

PKCβ = biological target: T2, PKCβ (Homo sapiens, UniProt P05771); test: EGFP-PKC isoform translocation in HeLa cells; assay type: cell-based; conditions: one hour; for PKCβ translocation from the cytoplasm to the plasma membrane: TPA 100 ng/mL, bryostatin-1 5 pg/mL, PEP003 2.25 μg/mL (5 μM), PEP005 670 μg/mL (1.5 μM)
T2 construct: host or cells: HeLa cells
T2 sequence (P05771 whole entry, species assumed, canonical isoform): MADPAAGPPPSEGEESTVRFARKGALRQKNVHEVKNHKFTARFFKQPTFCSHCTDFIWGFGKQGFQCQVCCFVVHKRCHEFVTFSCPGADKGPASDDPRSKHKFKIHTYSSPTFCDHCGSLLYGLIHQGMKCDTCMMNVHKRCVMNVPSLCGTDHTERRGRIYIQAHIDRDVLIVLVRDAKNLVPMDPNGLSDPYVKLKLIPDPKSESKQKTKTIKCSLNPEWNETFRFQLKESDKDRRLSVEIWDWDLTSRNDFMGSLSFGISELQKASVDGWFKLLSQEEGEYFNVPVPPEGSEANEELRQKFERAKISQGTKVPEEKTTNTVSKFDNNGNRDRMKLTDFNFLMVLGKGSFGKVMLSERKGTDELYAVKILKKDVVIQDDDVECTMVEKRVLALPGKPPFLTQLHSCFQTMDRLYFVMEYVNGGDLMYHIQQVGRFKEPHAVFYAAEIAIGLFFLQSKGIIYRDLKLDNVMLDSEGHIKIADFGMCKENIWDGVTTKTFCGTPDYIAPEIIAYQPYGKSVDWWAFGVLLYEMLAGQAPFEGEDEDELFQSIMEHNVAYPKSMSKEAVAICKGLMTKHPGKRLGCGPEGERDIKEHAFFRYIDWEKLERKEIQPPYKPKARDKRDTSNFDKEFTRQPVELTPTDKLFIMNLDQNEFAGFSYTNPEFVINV
Experimental: as §1
as §2, with “counted. Results are presented as an average and standard deviation of percentages of cells (Table 1).” for “counted.”

PKCζ = biological target: T3, PKCζ (Homo sapiens, UniProt Q05513); test: EGFP-PKC isoform translocation in HeLa cells; assay type: cell-based; conditions: one hour, TPA 100 ng/mL, bryostatin-1 5 pg/mL, PEP003 2.25 μg/mL (5 μM), PEP005 670 μg/mL (1.5 μM)
T3 construct: host or cells: HeLa cells
T3 sequence (Q05513 1-592): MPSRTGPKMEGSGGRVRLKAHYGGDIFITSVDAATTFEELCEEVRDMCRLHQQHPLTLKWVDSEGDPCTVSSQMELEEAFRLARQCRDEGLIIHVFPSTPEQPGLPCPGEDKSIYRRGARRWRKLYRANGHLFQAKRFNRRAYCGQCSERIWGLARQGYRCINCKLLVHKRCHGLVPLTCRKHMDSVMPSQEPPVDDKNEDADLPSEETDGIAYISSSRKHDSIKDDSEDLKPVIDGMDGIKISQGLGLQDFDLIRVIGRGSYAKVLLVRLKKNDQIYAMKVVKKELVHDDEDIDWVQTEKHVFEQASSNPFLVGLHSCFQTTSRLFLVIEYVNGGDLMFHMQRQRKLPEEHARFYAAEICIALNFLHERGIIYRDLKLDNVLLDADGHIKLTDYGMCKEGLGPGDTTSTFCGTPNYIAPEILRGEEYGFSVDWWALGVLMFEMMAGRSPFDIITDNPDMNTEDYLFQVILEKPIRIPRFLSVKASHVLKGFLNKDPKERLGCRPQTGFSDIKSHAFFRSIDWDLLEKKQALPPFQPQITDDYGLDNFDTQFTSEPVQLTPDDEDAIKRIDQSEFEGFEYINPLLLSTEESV
Experimental: as §1
as §2, with “counted. Results are presented as an average and standard deviation of percentages of cells (Table 1).” for “counted.”

PKCγ = biological target: T4, PKCγ (Homo sapiens, UniProt P05129); test: EGFP-PKC isoform translocation in HeLa cells; assay type: cell-based; conditions: one hour; for PKCγ translocation from the cytoplasm to the plasma membrane: TPA 100 ng/mL, bryostatin-1 5 pg/mL, PEP003 2.25 μg/mL (5 μM), PEP005 670 μg/mL (1.5 μM)
T4 construct: host or cells: HeLa cells
Experimental: as §1
as §2, with “counted. Results are presented as an average and standard deviation of percentages of cells (Table 1).” for “counted.”

PKCθ = biological target: T5, PKCθ (Homo sapiens, UniProt Q04759); test: EGFP-PKC isoform translocation in HeLa cells; assay type: cell-based; conditions: one hour, TPA 100 ng/mL, bryostatin-1 5 pg/mL, PEP003 2.25 μg/mL (5 μM)
T5 construct: host or cells: HeLa cells
T5 sequence (Q04759 whole entry, canonical isoform): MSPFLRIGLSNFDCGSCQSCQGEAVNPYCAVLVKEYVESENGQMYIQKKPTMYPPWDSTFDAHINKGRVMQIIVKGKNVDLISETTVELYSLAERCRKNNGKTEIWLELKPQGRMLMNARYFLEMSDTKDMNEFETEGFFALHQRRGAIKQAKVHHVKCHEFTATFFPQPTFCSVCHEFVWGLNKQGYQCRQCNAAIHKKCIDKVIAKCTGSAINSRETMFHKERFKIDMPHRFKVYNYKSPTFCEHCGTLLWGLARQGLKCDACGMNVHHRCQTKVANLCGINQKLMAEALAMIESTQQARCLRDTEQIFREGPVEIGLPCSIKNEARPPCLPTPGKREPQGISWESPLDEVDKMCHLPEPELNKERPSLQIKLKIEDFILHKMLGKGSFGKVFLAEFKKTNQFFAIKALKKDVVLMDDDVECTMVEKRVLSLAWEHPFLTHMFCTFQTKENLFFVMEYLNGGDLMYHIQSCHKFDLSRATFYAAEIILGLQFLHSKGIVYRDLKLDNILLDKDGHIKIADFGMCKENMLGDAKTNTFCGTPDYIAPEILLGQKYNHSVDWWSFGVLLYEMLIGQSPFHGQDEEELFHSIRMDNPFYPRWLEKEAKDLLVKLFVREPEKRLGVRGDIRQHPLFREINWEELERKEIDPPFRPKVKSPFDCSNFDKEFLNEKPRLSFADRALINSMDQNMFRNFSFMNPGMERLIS
Experimental: as §1
as §2, with “counted. Results are presented as an average and standard deviation of percentages of cells (Table 1).” for “counted.”

adenovirus 5 = test: Adenovirus replication in human melanoma cells (immunohistochemical detection); assay type: cell-based; conditions: 295 ng/mL; 2 days
Description: Human melanoma cells were infected with ten-fold dilutions of adenovirus 5 in culture, treated with dilutions of PEP005, PEP006, PEP008 and PEP010 and adenovirus replication determined 2 days later by immunhistochemical detection of virus-replicating cells.

CMV promoter = conditions: Christenson et al., 1999; cited from earlier work
latent HIV in monocytes = conditions: Tobiume et al., 1998; cited from earlier work
[2] = system: Burkitt's lymphoma cell lines (MutuI and BL74); test: EBV activation, VCA on western blots, Burkitt's lymphoma cell lines; assay type: cell-based
Experimental: Initially the effect of PEP003 and PEP004 was tested on the B95-8 cell line (an EBV positive marmoset cell line that is used worldwide as one of the best EBV producers). This cell line was treated with each of these compounds (at different concentrations) for 3 days and 7 days, respectively, and activation of EBV virus production was measured by the appearance of a viral capsid antigen (VCA) on western blots. Also, as a comparison, EBV was activated in this cell line with TPA.
To ensure that equal amounts of each sample were analyzed, the gels were stained with Coomassie blue and the loadings were adjusted to make them equal. […] Next the PEP003 and PEP004 were assayed on two Burkitt's lymphoma cell lines and an LCL. This time only concentrations of 10^−5 and 10^−7 were used.

rat brain PKC = test: PKC kinase activity, PepTag Non-Radioactive Protein Kinase Kit; assay type: biochemical; conditions: FIG. 1; TPA various dilutions (lanes 3, 4 and 5); ether extract at final dilution of 1 in 5 relative to the sap; crude sap and aqueous layer diluted 1/25
Experimental: The kinase activity of rat brain PKC (Promega) was determined using the Peptag™ Non-Radioactive Protein Kinase Kit (Promega). Using agarose gel electrophoresis the technique visualises the opposing electrostatic charge of a fluorescently labeled peptide ([sequence]) compared to the phosphorylated version of the same peptide.
The reaction mixture was separated by gel electrophoresis, showing migration of the unreacted substrate (a) to the anode (top), and the product (b), which is more negatively charged because of phosphorylation by PKC, moving towards the cathode (bottom).

[3] = system: latently HIV-1 infected cell line (U1); test: Activation of latent HIV from U1 cells (p24 ELISA); assay type: cell-based, HIV-1 LAI strain; conditions: 20 hr culture
Description: A latently HIV-1 infected cell line (U1), derived from the promonocytic cell line U937 after infection with HIV-1 LAI strain, was used in these experiments. In the absence of activation, no or little virus (measured as p24 production) is produced by the U1 cell line. Phorbol esters are known to activate virus production from these cells (Tobiume et al., 1998) and so TPA/PMA was used as a positive control in these experiments.
Supernatants were collected and viral replication monitored by determination of the amounts of HIV p24 gag protein in the culture supernatants by ELISA, using a NEN Life Science HIV-1 p24 ELISA kit. p24 values were calculated from OD values using a standard curve.

[4] = system: Peripheral blood mononuclear cells (PBMC); test: Respiratory burst, H2O2 production by DCFH-DA flow cytometry; assay type: cell-based; conditions: 10 μg/mL or 1 μg/mL, added at the same time as the test compounds
Experimental: Experiments were also carried out using 2′,7′-dichlorofluorescein diacetate (DCFH-DA) to measure the production of H2O2.(J P Robinson, Oxidative burst methods, in Handbook of Flow Cytometry Methods, Wiley-Liss Inc, pp 147-149, 1993). H2O2 oxidizes the non-fluorescent probe (DCFH-DA) to a fluorescent probe that can then be detected by a flow cytometer. Peripheral blood mononuclear cells (PBMC) were extracted from a donor blood sample by lysis of heparinized blood and used in a suspension of 1×10^6/mL of phosphate buffer, pH 7.3. The cells were then incubated, with DCFH-DA (1 μL/mL of 20 mM stock) for 15 minutes to allow it to be taken up and trapped by hydrolysis with cellular esterases. The cells were then stimulated by test compounds for 15 min at 37° C. Controls included in the experiment were unloaded control (cells with no DCFH-DA) and loaded control (cells with DCFH-DA, but no stimulation). These were used to monitor the non-specific oxidation of unstimulated cells. The cells were then analyzed on the flow cytometer (excitation at 488 nm, emission at 525±20 nm), gating each sample for individual cell populations—granulocytes, monocytes and lymphocytes (Table 3).

[5] = system: phorbol ester binding site of PKC; test: [3H]-phorbol dibutyrate competition assay on rat brain homogenate; conditions: co-incubation
Experimental: A competition assay was performed to determine whether the diterpene esters of the instant invention bind to the phorbol ester binding site of PKC. […] This binding was not blocked by co-incubation with bisindolylmaleimide.

Row | Compound | phagocytosis of fluorescent latex spheres in PBMCs [1] | number of PKCα transfected cells displaying Golgi-like fluorescence (PKCα) | PKCα translocation from the cytoplasm to the plasma membrane (PKCα) | number of PKCβ transfected cells with Golgi-like fluorescence (PKCβ) | PKCβ translocation from the cytoplasm to the plasma membrane (PKCβ) | PKCζ translocation (PKCζ) | number of PKCγ transfected cells displaying Golgi-like fluorescence (PKCγ) | PKCγ translocation from the cytoplasm to the plasma membrane (PKCγ) | PKCθ translocation (PKCθ) | activation of PKC (rat brain PKC) | other results
1 | C/C=C(/C)C(=O)O[C@H]1C(C)=C[C@]23C(=O)[C@@H](C=C(CO)[C@@H](O)[C@]12O)[C@H]1[C@@H](C[C@H]3C)C1(C)C [PEP005, Ingenol-3-angelate] | stimulate phagocytosis | increase in the number of cells displaying Golgi-like fluorescence | translocated from the cytoplasm to the plasma membrane | decreases the number of cells with PKCβ concentrated in the Golgi | translocated from the cytoplasm to the plasma membrane | fail to induce translocation of PKCζ | increase in the number of cells displaying Golgi-like fluorescence | translocated from the cytoplasm to the plasma membrane | does not induce any change in the isoenzymes localization | – | –
2 | C/C=C(/C)C(=O)O[C@H]1C(C)=C[C@]23C(=O)[C@H](C=C(C)[C@@H](O)[C@]12O)[C@H]1[C@@H](C[C@H]3C)C1(C)C [PEP006, 20-deoxy-ingenol-3-angelate] | stimulate phagocytosis | – | – | – | – | – | – | – | – | – | increase of adenovirus replication (number of stained cells) (adenovirus 5): 256%
3 | CCCCCCCCCCCCCC(=O)O[C@@H]1[C@@H](C)[C@@]2(O)[C@@H](C=C(CO)C[C@]3(O)C(=O)C(C)=C[C@@H]23)[C@@H]2C(C)(C)[C@]12OC(C)=O [TPA] | stimulate phagocytosis | increase in the number of cells displaying Golgi-like fluorescence | translocated from the cytoplasm to the plasma membrane | increase in Golgi-like fluorescence | translocated from the cytoplasm to the plasma membrane | fail to induce translocation of PKCζ | increase in the number of cells displaying Golgi-like fluorescence | translocated from the cytoplasm to the plasma membrane | translocated | showed activation of PKC | increase of CMV promoter transcriptional activity (CMV promoter): increase this activity; activation of latent HIV in monocytes (latent HIV in monocytes): activate latent HIV in monocytes; induction of VCA in MutuI cells [2]: did not; activation of HIV from U1 cells (p24 production) [3]: activated HIV from U1 cells
4 | CCC/C=C/C=C/C(=O)O[C@H]1/C(=C/C(=O)OC)C[C@H]2C[C@H]([C@@H](C)O)OC(=O)C[C@H](O)C[C@@H]3C[C@H](OC(C)=O)C(C)(C)[C@](O)(C[C@@H]4C/C(=C/C(=O)OC)C[C@H](/C=C/C(C)(C)[C@]1(O)O2)O4)O3 [bryostatin-1] | – | – | not with bryostatin-1 | decreases the number of cells with PKCβ concentrated in the Golgi | not with bryostatin-1 | fail to induce translocation of PKCζ | – | – | translocated | – | –
5 | bisindolylmaleimide | – | – | – | – | – | – | – | – | – | – | effect of PKC inhibitor on the respiratory burst seen with TPA and PEP003 [4]: blocked the respiratory burst; binds to the phorbol ester binding site of PKC [5]: does not
6 | phosphatidyl serine | – | – | – | – | – | – | – | – | – | strong activation | –
